Literature values, collected in patent US20150246043A1, “ORAL DOSAGE FORMS FOR MODIFIED RELEASE COMPRISING RUXOLITINIB” (ratiopharm GmbH, priority 2012, published 2015).

Legend:
[1] = reported for Ruxolitinib and especially its pharmaceutically acceptable salts like the phosphate salt (WO 2008/157208)
[2] = class I = high permeability, high solubility

N#CC[C@H](C1CCCC1)n1cc(-c2ncnc3[nH]ccc23)cn1 [Ruxolitinib, (3R)-3-cyclopentyl-3-[4-(7H-pyrrolo[2,3-d]pyrimidin-4-yl)pyrazol-1-yl]propanenitrile]
aqueous solubility [1]: very high
Biopharmaceutics Classification System class [2]: class I
